The nature of the data set: SSSP-MS/MS spot sampling of whole-body thin tissue sections of a propranolol dosed mouse. The class given is in vivo. The note with it: male CD-1 mouse, propranolol 7.5 mg/kg i.v., sacrificed 60 min post-dose, 40 μm section, ESI+. Here is the method:
At 60 min post-dose, mice were euthanized with an isoflurane overdose and immediately frozen in dry ice/hexane. The frozen mice were embedded/blocked in 2% aqueous carboxymethyl cellulose. Sagittal whole-body cryosections (40 μm thick) were prepared using a Leica CM3600 cryomacrotome and collected onto adhesive tape (8″×3″, 810 Scotch® Brand Magic™ Tape, 3M) then freeze-dried within the chamber of the cryomacrotome. Prior to analysis using the SSSP, tissue sections were stored in a desiccator at room temperature. Color images of the tissue sections were acquired using a HP Scanjet 4370 flat-bed scanner (Hewlett-Packard, Palo Alto, Calif., USA).
The inlet and outlet of the SSSP (“TLC-MS interface”, CAMAG, Muttenz, Switzerland) were coupled to an ACQUITY UltraPerformance Liquid Chromatography (UPLC) system (Waters Corporation, Manchester, UK) and to a 4000 QTRAP® mass spectrometer (MDS SCIEX, Concord, Ontario, Canada), respectively (see FIG. S1 in the Supplemental section). The gas pressure applied via a piston to the plunger of the SSSP interface was about 5 bar. The flow rate of the extraction solvent was 200 μL/min in all cases. For positive ion mode ESI, the emitter voltage was 5 kV and the turbo sprayer heater temperature was 300° C. For positive ion mode APCI, heated nebulizer probe temperature and needle current were 350° C. and 5 μA, respectively.
The extraction solvent flow paths and the individual steps of the surface sampling process with the SSSP are illustrated in FIGS. 3A-3E and 4A-4E. The solvent inlet capillary to the SSSP was connected to the UPLC pump, while the outlet capillary was connected to the ion source (ESI or APCI) of the mass spectrometer. At the beginning of a surface sampling experiment, a sample was positioned under the SSSP plunger while the extraction solvent flowed from the UPLC through a loop into the ion source (as in FIGS. 3A and 4A). Next, the SSSP stainless steel plunger, with 4-mm-diameter disk shape cutting edge, was lowered to seal the sampling area by cutting into and compressing the sample substrate (paper or adhesive tape in this case) (as in FIGS. 3B and 4B). By switching the valve from standby to extraction mode, the solvent previously being pumped directly to the ion source was diverted to the surface, where it extracted the analyte, and any other soluble components, and carried them into the ion source (FIGS. 3C and 4C). After a suitable extraction time (typically 60 seconds), the valve was switched back to direct the extraction solvent from the UPLC through the loop into the ion source (FIGS. 3D and 4D). […] In the final step of the surface sampling process, the plunger was raised up from the surface (FIGS. 3E and 4E) and then a cleaning station was positioned under the probe. Here, using push button control, the sampling face of the plunger was cleaned of accumulated particulate material using a stream of pressurized nitrogen. In the case of the tissue sections on tape, the probe actually cut out a section from the sample which stayed with the probe until removed by this gas jet cleaning. […] This washed the SSSP plunger face and tubing from the plunger to the valve and on into the ion source. Given 15 or 30 s to position the probe for analysis of a DBS or tissue sample spot, respectively, a 60 second extraction time and 60 s wash time to eliminate carryover, spot-to-spot analysis time was either […].
The tissue section was collected onto an adhesive tape substrate, which is a common format to collect whole-body tissue sections for WBA analyses.

For `CC(C)NCC(O)COc1cccc2ccccc12` (stereo not drawn) [propranolol, reference compound], the “SRM signal in brain (spot 2)” value is recorded as “High”.
For the compound hydroxypropranolol glucuronide, the “SRM signal in brain (spot 2)” value was “not detected”, the “SRM signal in heart (spot 5)” value is “Much lower”, the “SRM signal in kidney (spot 3)” value is “highest” and the “SRM signal in liver (spot 1)” value is “highest”. In addition, the “SRM signal in lung (spot 6)” value is listed as “Much lower”.
